Laboratory results reported in patent publication US11466032B2, “Cytotoxic agents” (FEMTOGENIX LIMITED, priority 2017, dated 2022).

How the values were obtained:
LIM 1215 = test: MTT cytotoxicity assay, 72 hour incubation; assay type: cell-based
Description: (§1) The cytotoxicity of compounds 26, 34, 50,58 and 68 were evaluated in a variety of cell lines using the standard MTT assay for a 72 hour incubation period (Table 1).
(§2) Tumor cell lines were maintained in RPMI1640 medium supplemented with 10% heat-inactivated fetal bovine serum, 2 mM L-glutamine and 1 mM sodium pyruvate. 1800 cells per well were seeded in a volume of 180 μl in a 96-well flat bottom polystyrene plate. The cells were allowed to adhere overnight at 37° C. in a CO2 incubator. Ligands were initially formulated in DMSO, and stocks stored at −80° C. They were then further formulated at lox concentration in RPMI1640 medium. 20 ul of diluted samples were added into each treatment well. On each plate, blank wells with no cells, and untreated wells containing cells, were included. Plates were then cultured at 37° C. in a CO2 incubator for 72 hrs. Cytotoxicity was evaluated using a tetrazolium salt-based assay, the MT assay. After 72 hours, the supernatant was removed from each well and 200 μl of a sterile filtered 500 μg/ml MT solution in water added to each well. The plates were then incubated at 37° C. in a CO2 incubator for 4 hrs. The supernatant was then removed and the formazan crystals formed solubilized by adding 150 μl of DMSO to each well. The plate was then read on a plate reader at 540 nm, and percentage cell survival calculated as follows: ((mean absorbance treated wells at concentration x—mean absorbance blank wells)÷(mean absorbance untreated wells at concentration x—mean absorbance blank wells))×100. Data were plotted as concentration in nM vs. % cell survival in Microsoft Excel, and IC50 values (concentration where cell survival is reduced by a half) were determined from the graph.

MCF-7 = test: MTT cytotoxicity assay, 72 hour incubation; assay type: cell-based; details: Homo sapiens, MCF7, 3 runs
Description: as §1, §2

SK-BR-3 = test: MTT cytotoxicity assay, 72 hour incubation; assay type: cell-based; details: Homo sapiens, 3 runs
Description: as §1, §2

SW 620 = test: MTT cytotoxicity assay, 72 hour incubation; assay type: cell-based
Description: as §1, §2

SW48 = test: MTT cytotoxicity assay, 72 hour incubation; assay type: cell-based
Description: as §1, §2

ZR 75-1 = test: MTT cytotoxicity assay, 72 hour incubation; assay type: cell-based; details: Homo sapiens, 3 runs
Description: as §1, §2

[1] = tested on: HexA and MS1 DNA fragments; test: DNA footprinting; assay type: binding; details: X is any base, Y is G or C, W is A or T; overnight incubation
Description: The sequence selectivity of 26 and 34 was investigated using a modification of the previously established DNA footprinting assay^25. Following an overnight incubation of the ligand-DNA complexes, the mixture was mixed with strand separation buffer containing 10 mM EDTA, 10 mM NaOH, 0.1% bromophenol blue, 80% formamide and incubated at 100° C. for 3 min. The mixture was then immediately cooled on ice and run on an 8% denaturing gel.
Footprinting reactions were performed as previously described^[5] using the DNA fragments HexA and HexB, which together contain all 64 symmetrical hexanucleotide sequences^[6], and MS1 that contains all possible […] tetranucleotide sequences^[7]. The DNA fragments were obtained by cutting the parent plasmids with HindIII and SacI (for HexA and MS1) or EcoRI and PstI (for HexB), and were labelled at the 3′-end of the HindIII or EcoRI sites with [α-^32P]dATP using reverse transcriptase or exo-Klenow fragment. After gel purification, the radiolabelled DNA was dissolved in 10 mM Tris-HCl pH 7.5 containing 0.1 mM EDTA, at a concentration of about 10 c.p.s per μL as determined on a hand held Geiger counter. 1.5 μL of radiolabelled DNA was mixed with 1.5 μL ligand that had been freshly diluted in 10 mM Tris-HCl pH 7.5, containing 10 mM NaCl. […]

[2] = tested on: linear 32P-end-labelled TyrT DNA; test: DNA interstrand cross-linking assay (denaturing polyacrylamide gel); assay type: biochemical; details: overnight incubation at 37° C.
Description: The ability of 26 and 34 to cross-link DNA was determined using an assay involving linear double-stranded HexA. TyrT and MS1 DNA fragments (FIG. 5).
Following denaturation conditions (treatment with formamide and heating at 65° C. for 5 min) the DNA strands were completely separated (see control C2, FIG. 6). The presence of an interstrand cross-link holds the denatured strands in close proximity, and cross-linked adducts therefore run as double-stranded DNA on polyacrylamide gel. Talirine and 34 were tested at >10 different concentrations, and the assay was repeated twice. […] C1 and C2 represent controls where C1 is DNA without formic acid, and C2 is DNA without formic acid, but heated thereby forming single strands. Cross-links are clearly detectable at concentrations as low as 10 nM. Using the same assay, the PBD dimer Talirine was also shown to cross-link DNA down to a concentration of 10 nM (FIG. 7).
The preparation of the DNA fragments (FIG. 5) has been previously described^[4]. Briefly, the sequence which had been cloned into the BamHI site of pUC18 was obtained by cutting with HindIII and EcoRI. Radiolabelled DNA fragments were prepared by filling in the 3′-end of the HindIII site with [α-^32P]dATP using Klenow DNA polymerase (exo-).
The radiolabelled DNA fragment was separated from the remainder of the plasmid DNA on a 6% non-denaturing polyacrylamide gel. […]

Compound	IC50 (LIM 1215; LIM1215, 3 runs)	IC50 (MCF-7)	IC50 (SK-BR-3)	IC50 (SW 620; Homo sapiens, SW-620, 3 runs)	IC50 (SW48; Homo sapiens, SW48, 3 runs)	IC50 (ZR 75-1)	general code of the footprints (preferred binding sites) [1]	IC50 (LIM 1215; 3 runs)	IC50 (SW 620; 3 runs)	IC50 (SW48; 3 runs)	lowest concentration at which DNA is cross-linked [2]
COc1ccc(C2=CCN3C(=O)c4cc(OC)c(OCc5cccc(COc6cc7c(cc6OC)C(=O)N6CC=C(c8ccc(OC)cc8)C[C@H]6C=N7)n5)cc4N=C[C@@H]3C2)cc1 [Compound 26, (6aS,6a′S)-3,3′-((Pyridine-2,6-diylbis(methylene))bis(oxy))bis(2-methoxy-8-(4-methoxyphenyl)-7,10-dihydrobenzo[e]pyrido[1,2-α][1,4]diazepin-12(6aH)-one)]	6 pM	6 pM	6 pM	5 pM	6 pM	5 pM	XYWWYWYX				
COc1cc2c(cc1OCc1cccc(COc3cc4c(cc3OC)C(=O)N3CC=C(c5cncnc5)C[C@H]3C=N4)n1)N=C[C@@H]1CC(c3cncnc3)=CCN1C2=O [Compound 50, (6aS,6a′S)-3,3′-((Pyridine-2,6-diylbis(methylene))bis(oxy))bis(2-methoxy-8-(pyrimidin-5-yl)-7,10-dihydrobenzo[e]pyrido[1,2-α][1,4]diazepin-12(6aH)-one)]	3.7 pM			1350 pM	3.1 pM						
COc1cc2c(cc1OCc1cccc(COc3cc4c(cc3OC)C(=O)N3CC=C(c5ccsc5)C[C@H]3C=N4)n1)N=C[C@@H]1CC(c3ccsc3)=CCN1C2=O [Compound 58, (6aS,6a′S)-3,3′-((Pyridine-2,6-diylbis(methylene))bis(oxy))bis(2-methoxy-8-(thiophen-3-yl)-7,10-dihydrobenzo[e]pyrido[1,2-α][1,4]diazepin-12(6aH)-one)]	23 pM			92 pM	8.6 pM						
COc1cc2c(cc1OCc1cccc(COc3cc4c(cc3OC)C(=O)N3CC=C(c5cccs5)C[C@H]3C=N4)n1)N=C[C@@H]1CC(c3cccs3)=CCN1C2=O [Compound 68, (6aS,6a′S)-3,3′-((Pyridine-2,6-diylbis(methylene))bis(oxy))bis(2-methoxy-8-(thiophen-2-yl)-7,10-dihydrobenzo[e]pyrido[1,2-α][1,4]diazepin-12(6aH)-one)]	13 pM			30 pM	12 pM						
Talirine [reference compound]								434 pM	17 pM	3 pM	10 nM
